Patent publication US20230201144A1, “BIARYLSULFONAMIDES AND PHARMACEUTICAL COMPOSITIONS THEREOF, AND THEIR USE FOR TREATING FIBROTIC LUNG DISEASE” (NovoMedix, LLC, priority 2020, published 2023)
Several values for one entry are separate records, joined by “and”; a condition that tells them apart may be missing. Equal values may be shown once.

Test system: Alpha smooth muscle actin (α-SMA) levels
Assay: α-SMA levels by Western blot in TGF-β-treated normal human lung fibroblasts (headed Cell Proliferation Assay)
Assay type: cell-based
Conditions: 10 ng/mL TGF-β, 24 h; for Relative α-SMA 5 μM / Relative α-SMA 20 μM: Table 4; for Relative α-SMA 5 μM: compound 5 μM; for Relative α-SMA 20 μM: compound 20 μM
Procedure: Normal human lung fibroblasts were plated in a 6-well plate at 100,000 cells per well in 1 mL of DMEM supplemented with 10% FBS. The cells were incubated overnight at 37° C. under 5% CO2. The next day, the cells were serum starved (medium was removed and 1 mL of fresh DMEM without serum was added). The cells were incubated overnight.
The cells were treated with a test compound in DMEM, 5% FBS in the presence of 10 ng/mL TGF-β and incubated for 24 h. The cells were lysed with an M-PER buffer. Alpha smooth muscle actin (α-SMA) levels were determined by Western blot and normalized to 0-tubulin levels using cell signaling antibodies. Blots were probed with secondary antibodies from LI-COR® Biosciences and read using a scanner from LI-COR® Biosciences. Quantification was also done using a software from LI-COR® Biosciences. The results are shown in Tables 1 to 4 below, where the control (Ctrl) is the fibroblasts in the absence of TGF-β and a test compound.

[1] = single agent 5 μM, TGF-β alone = 1 (Tables 1-3)
[2] = single agent 10 μM, TGF-β alone = 1
[3] = single agent 20 μM, TGF-β alone = 1 (Tables 1-3)

Row | SMILES | Relative α-SMA 5 μM | Relative α-SMA 20 μM | other results
1 | Cc1cc(NS(=O)(=O)c2c(C(C)C)cc(C(C)C)cc2C(C)C)cc(C(F)(F)F)c1 [A1, 2,4,6-Triisopropyl-N-(3-methyl-5-(trifluoromethyl)phenyl)benzenesulfonamide] | 0.98 | 0.37 | 
2 | COC(=O)c1cc(NS(=O)(=O)c2c(C(C)C)cc(C(C)C)cc2C(C)C)cc(C(F)(F)F)c1 [A2, Methyl 3-(trifluoromethyl)-5-((2,4,6-triisopropylphenyl)sulfonamido)benzoate] | 1.05 | 0.23 | 
3 | CC(C)c1cc(C(C)C)c(S(=O)(=O)Nc2cc(C(=O)O)cc(C(F)(F)F)c2)c(C(C)C)c1 [A3, 3-(Trifluoromethyl)-5-((2,4,6-triisopropylphenyl)sulfonamido)benzoic acid] | 0.79 | 0.73 | 
4 | CCCCNC(=O)c1cc(NS(=O)(=O)c2c(C(C)C)cc(C(C)C)cc2C(C)C)cc(C(F)(F)F)c1 [A4, N-Butyl-3-(trifluoromethyl)-5-((2,4,6-triisopropylphenyl)sulfonamido)benzamide] | 1.30 | 0.46 | 
5 | CC(C)c1cc(C(C)C)c(S(=O)(=O)Nc2cc(NC(=O)OC(C)(C)C)cc(C(F)(F)F)c2)c(C(C)C)c1 [A5, Tert-butyl (3-(trifluoromethyl)-5-((2,4,6-triisopropylphenyl)sulfonamido)-phenyl)carbamate] | 0.95 | 0.21 | 
6 | CC(C)c1cc(C(C)C)c(S(=O)(=O)Nc2cc(N)cc(C(F)(F)F)c2)c(C(C)C)c1 [A6, N-(3-Amino-5-(trifluoromethyl)phenyl)-2,4,6-triisopropylbenzenesulfonamide] | 1.08 | 0.05 | 
7 | CC(=O)Nc1cc(NS(=O)(=O)c2c(C(C)C)cc(C(C)C)cc2C(C)C)cc(C(F)(F)F)c1 [A7, N-(3-(Trifluoromethyl)-5-((2,4,6-triisopropylphenyl)sulfonamido)phenyl)-acetamide] | 1.60 | 0.33 | 
8 | CCN(CC)c1cc(NS(=O)(=O)c2c(C(C)C)cc(C(C)C)cc2C(C)C)cc(C(F)(F)F)c1 [A8, N-(3-(Diethylamino)-5-(trifluoromethyl)phenyl)-2,4,6-triisopropylbenzenesulfonamide] | 0.88 | 0.33 | 
9 | Cc1cc(C(C)(C)C)cc(C)c1S(=O)(=O)Nc1cc(OCCCC#N)cc(C(F)(F)F)c1 [A9, 4-(Tert-butyl)-N-(3-(3-cyanopropoxy)-5-(trifluoromethyl)phenyl)-2,6-dimethylbenzenesulfonamide] | 1.05 | 0.78 | 
10 | Cc1cc(C(C)(C)C)cc(C)c1S(=O)(=O)Nc1cc(OCCCCN)cc(C(F)(F)F)c1 [A10, N-(3-(4-Aminobutoxy)-5-(trifluoromethyl)phenyl)-4-(tert-butyl)-2,6-dimethylbenzenesulfonamide] | 0.69 |  | 
11 | CC(C)c1cc(C(C)C)c(S(=O)(=O)Nc2cc(OCCCCN)cc(C(F)(F)F)c2)c(C(C)C)c1 [A11, N-(3-(4-Aminobutoxy)-5-(trifluoromethyl)phenyl)-2,4,6-triisopropylbenzenesulfonamide] | 0.85 |  | 
12 | Cc1cc(C(C)(C)C)cc(C)c1S(=O)(=O)Nc1cc(OCCN(C)C)cc(C(F)(F)F)c1 [A12, 4-(Tert-butyl)-N-(3-(2-(dimethylamino)ethoxy)-5-(trifluoromethyl)phenyl)-2,6-dimethylbenzenesulfonamide] | 0.37 |  | 
13 | Cc1cc(C(C)(C)C)cc(C)c1S(=O)(=O)Nc1cc(CCCN(C)C)cc(C(F)(F)F)c1 [A13, 4-(Tert-butyl)-N-(3-(3-(dimethylamino)propyl)-5-(trifluoromethyl)phenyl)-2,6-dimethylbenzenesulfonamide] | 0.29 |  | 
14 | Cc1cc(C(C)(C)C)cc(C)c1S(=O)(=O)Nc1cc(CCCN2CCOCC2)cc(C(F)(F)F)c1 [A14, 4-(Tert-butyl)-2,6-dimethyl-N-(3-(3-morpholinopropyl)-5-(trifluoromethyl)-phenyl)benzenesulfonamide] | 0.53 |  | 
15 | Cc1cc(C(C)(C)C)cc(C)c1S(=O)(=O)Nc1cc(C2CCN(C)CC2)cc(C(F)(F)F)c1 [A15, 4-(Tert-butyl)-2,6-dimethyl-N-(3-(1-methylpiperidin-4-yl)-5-(trifluoromethyl)-phenyl)benzenesulfonamide] | 0.31 |  | 
16 | Cc1cc(C(C)(C)C)cc(C)c1S(=O)(=O)Nc1cc(Br)cc(C(F)(F)F)c1 [A16, N-(3-Bromo-5-(trifluoromethyl)phenyl)-4-(tert-butyl)-2,6-dimethylbenzenesulfonamide] | 0.35 |  | 
17 | COc1cc(NS(=O)(=O)c2c(C)cc(C(C)(C)C)cc2C)cc(C(F)(F)F)c1 [A17, 4-(Tert-butyl)-N-(3-methoxy-5-(trifluoromethyl)phenyl)-2,6-dimethylbenzenesulfonamide] | 0.46 |  | 
18 | Cc1cc(C(C)(C)C)cc(C)c1S(=O)(=O)Nc1cc(O)cc(C(F)(F)F)c1 [A18, 4-(Tert-butyl)-N-(3-hydroxy-5-(trifluoromethyl)phenyl)-2,6-dimethylbenzenesulfonamide] | 0.57 | 0.28 | Relative α-SMA [1]: 1.26; Relative α-SMA [2]: 0.86; Relative α-SMA [3]: 0.06
19 | COc1cc(NS(=O)(=O)c2c(C(C)C)cc(C(C)C)cc2C(C)C)c(C)c(C(F)(F)F)c1 [A19, 2,4,6-Triisopropyl-N-(5-methoxy-2-methyl-3-(trifluoromethyl)phenyl)-benzenesulfonamide] | 0.56 |  | 
20 | Cc1c(NS(=O)(=O)c2c(C(C)C)cc(C(C)C)cc2C(C)C)cc(O)cc1C(F)(F)F [A20, N-(5-Hydroxy-2-methyl-3-(trifluoromethyl)phenyl)-2,4,6-triisopropylbenzenesulfonamide] | 0.27 |  | 
21 | Cc1c(Br)cc(C(F)(F)F)cc1NS(=O)(=O)c1c(C(C)C)cc(C(C)C)cc1C(C)C [A21, N-(3-Bromo-2-methyl-5-(trifluoromethyl)phenyl)-2,4,6-triisopropylbenzenesulfonamide] | 0.45 |  | 
22 | Cc1cc(C(C)(C)C)cc(C)c1S(=O)(=O)Nc1cc(C2CCNCC2)cc(C(F)(F)F)c1 [A22, 4-(Tert-butyl)-2,6-dimethyl-N-(3-(piperidin-4-yl)-5-(trifluoromethyl)phenyl)-benzenesulfonamide] | 0.21 | 0.12 | 
23 | Cc1c(NS(=O)(=O)c2c(C(C)C)cc(C(C)C)cc2C(C)C)cc(C(F)(F)F)cc1C(F)(F)F [B4, N-(2-methyl-3,5-bis(trifluoromethyl)phenyl)-2,4,6-triisopropyl-benzene-sulfonamide] |  |  | Relative α-SMA (single agent 2 μM, normalized to tubulin, TGF-β alone = 1): 0.95; Relative α-SMA [1]: 0.69; Relative α-SMA [2]: 0.15
24 | Cc1cc(C(C)(C)C)cc(C)c1S(=O)(=O)Nc1cc(C(F)(F)F)cc(C(F)(F)F)c1 [B5, N-(3,5-bis(trifluoromethyl)phenyl)-4-(tert-butyl)-2,6-dimethylbenzene-sulfonamide] |  |  | Relative α-SMA [1]: 0.91; Relative α-SMA [2]: 0.75; Relative α-SMA [3]: 0.24
25 | COC(=O)c1ccc2c(c1)NC(=O)/C2=C(\Nc1ccc(N(C)C(=O)CN2CCN(C)CC2)cc1)c1ccccc1 [N, nintedanib, reference compound] |  |  | Relative α-SMA [1]: 0.82 and 0.92 and 0.97
26 | Cc1ccc(=O)n(-c2ccccc2)c1 [P, pirfenidone, reference compound] |  |  | Relative α-SMA (single agent 200 μM, TGF-β alone = 1): 1.29 and 1.02
